Results taken from patent publication US9790193B2, “Semicarbazide-sensitive amine oxidase inhibitors for use as analgesics in traumatic neuropathy and neurogenic inflammation” (PÉCSI TUDOMÁNYEGYETEM, priority 2014, dated 2017).
Entries after “also recorded” stand apart in the source; their conditions may differ.

Experiments:
[1] = test system: sciatic nerve ligation-induced mechanical allodynia; experiment: Sciatic nerve ligation-induced traumatic mononeuropathy, mechanical allodynia in rats (dynamic plantar aesthesiometry); assay type: in vivo, male Wistar rats; conditions: for change of the mechanonociceptive thresholds, contralateral side of the operated rats / inhibitory effect on mechanical allodynia / mechanical allodynia (decrease of withdrawal threshold vs initial control) after drug injection: rat; for change of the mechanonociceptive thresholds, contralateral side of the operated rats: contralateral paw; for change of the mechanonociceptive thresholds, contralateral side of the operated rats / mechanical allodynia (decrease of withdrawal threshold vs initial control) after drug injection / change of the mechanonociceptive thresholds, sham-operated group: 20 mg/kg i.p.; for inhibitory effect on mechanical allodynia / mechanical allodynia (decrease of withdrawal threshold vs initial control) after drug injection: operated limb; for inhibitory effect on mechanical allodynia: day 7, 20 mg/kg i.p., post- vs pre-injection; for mechanical allodynia (decrease of withdrawal threshold vs initial control) after drug injection: day 7 after nerve ligation, 15 min after administration, mean±s.e.m.; for change of the mechanonociceptive thresholds, sham-operated group: sham-operated rats
Experimental: (§1) The solutions were prepared freshly on the day of the experiment with sterile saline. SZV-1287 (prepared according to WO 2010/029379 A1) dissolved in saline and the solution was clear. The SZV-1911 (prepared according to WO2006/094201 and WO2005/014530) solution was prepared with Tween 80 and ethanol, stirred properly with a vortex, heated moderately to 42° C. and sonicated, but it was still opalescent. The i.p. administered volume was 0.2 ml/100 g body weight from 10 mg/ml in rats solution and 0.1 m/10 g body weight from 2 mg/ml solution to achieve the 20 mg/kg doses. The solvent of SZV-1911 was given to the vehicle-treated animals in the same volume.
(§2) Sciatic nerve ligation-induced traumatic mononeuropathy experiments were performed on male Wistar rats (250-300 g), and on male C57Bl/6 mice as well as resiniferatoxin- or formalin-induced hyperalgesia. The original breeding pairs of the animals were purchased from Charles River Ltd. All the animals were kept in the Animal Facility of the Department of Pharmacology and Pharmacotherapy at the University of Pécs at 24-25° C. provided with standard chow and water ad libitum.
Before all experiments one conditioning and three reliable control threshold measurements were performed on three consecutive days. All operations were performed by the same operator, who was blinded to the animal group assignments and the treatment allocation (FIG. 1A for the rat, B for the mouse experimental paradigm).
(§3) On the 3rd and on the 7th day following the nerve ligation, the mechano-nociceptive thresholds were determined directly before and 15 min after i.p. drug administration to observe the difference between pre-injection and post-injection thresholds in mice. We determined the developing cold allodynia following the sciatic nerve ligation at Days 3 and 7. In rats we examined the developing mechanical allodynia just 7 days after the sciatic nerve ligation on the same way like in mice. Only animals with a minimum of 25% hyperalgesia/allodynia were included in the study (Seltzer et al., Pain., 1990, 43(2):205-18; Pintér et al., Naunyn Schmiedebergs Arch Pharmacol., 2002, 366(2):142-50.).
Mice were anaesthesized with a combination of ketamine and xylazine (100 mg/kg and 5 mg/kg i.p. respectively), but in rats Na-pentobarbital (40 mg/kg i.p) were used. The common sciatic nerve was exposed unilaterally on the right side high in the thigh and ⅓-½ of the nerve trunk was carefully separated and tightly ligated using a siliconised silk suture (Ethicone 5-0 and 8.0, respectively). Then the wound was closed and the animals were allowed to survive for 8 days (Seltzer, 1990; Malmberg and Basbaum 1998; Bolcskei et al. 2005; Sandor et al. 2010). During this period, signs of spontaneous pain (holding the legs in elevated position transiently for 2-3 days) and mechanical hyperalgesia and cold allodynia developed. In order to investigated the efficacy of these drugs we examined the drop of the mechanical touch sensitivity on Day 3, however the decrease of the mechanical threshold develops fully 7 days after the surgery.
The mechanical touch sensitivity thresholds of the plantar surface of the paws was determined by aesthesiometry (Ugo Basile Dynamic Plantar Aesthesiometer 37400; Comerio, Italy). This is an electronic von Frey device, in which the animals moved about freely in one of the compartments of the enclosure positioned on the metal mesh surface. Following acclimation after cessation of exploratory behaviour, the touch stimulator unit was placed under the animal's paw, using the adjustable angled-mirror to position the filament below the target area of the plantar surface. Then an electrodynamic actuator of proprietary design lifted a straight metal filament, which touched the plantar surface and began to exert an increasing upward force at a preset rate of application until a stop signal (removal of the paw) was attained. The paw withdrawal threshold was obtained in grams. […]

[2] = test system: formalin-induced acute nocifensive behaviours and hyperalgesia; experiment: Formalin-induced acute nocifensive behaviour and hyperalgesia in mice; assay type: in vivo, male C57Bl/6 mice; conditions: mouse
Experimental: as §1
as §2, with “libitum. […]” for “libitum.”
The noxious heat threshold of the paw, defined as the lowest temperature evoking nocifensive behaviour—was measured with an increasing-temperature hot plate (IITC Life Science, Woodland Hills, Calif., USA). […]
The total duration of paw licking and lifting were expressed to representing the nociceptive behaviour. […] Mechanical hyperalgesia values were determined as % by comparing the nociceptive thresholds measured at 2 and 4 hours after the application to the initial threshold values. Results are expressed as means±s.e.m. of the thermo- and mechanonociceptive threshold changes of n=11-11 animals/groups. Data were analysed with One-way ANOVA following Bonferroni's post-test in comparison to determine differences between the pre- and post-injection values of the respective groups.

[3] = test system: sciatic nerve ligation-induced mechanical hyperalgesia; experiment: Sciatic nerve ligation-induced traumatic mononeuropathy, mechanical hyperalgesia in mice (dynamic plantar aesthesiometry); assay type: in vivo, male C57Bl/6 mice; conditions: mouse, injured paw, single dose 20 mg/kg i.p., 15 minutes after administration, vs postoperative control values
Experimental: as §1
Sciatic nerve ligation-induced traumatic mononeuropathy experiments were performed on male Wistar rats (250-300 g), and on male C57Bl/6 mice as well as resiniferatoxin- or formalin-induced hyperalgesia. […]
On the 3rd and on the 7th day following the nerve ligation, the mechano-nociceptive thresholds were determined directly before and 15 min after i.p. drug administration to observe the difference between pre-injection and post-injection thresholds in mice. We determined the developing cold allodynia following the sciatic nerve ligation at Days 3 and 7. […]
The mechanical touch sensitivity thresholds of the plantar surface of the paws was determined by aesthesiometry (Ugo Basile Dynamic Plantar Aesthesiometer 37400; Comerio, Italy). […]

[4] = test system: sciatic nerve ligation-induced cold allodynia; experiment: Sciatic nerve ligation-induced cold allodynia in mice (paw withdrawal latency from 0° C. water); assay type: in vivo, male C57Bl/6 mice; conditions: mouse, injured paw, days 3 and 7 after nerve ligation
Experimental: as §3
Mice were anaesthesized with a combination of ketamine and xylazine (100 mg/kg and 5 mg/kg i.p. respectively), but in rats Na-pentobarbital (40 mg/kg i.p) were used. […]
A noxious cold stimulus was applied by immersing one of the murine hindpaws in icy water, remaining the temperature steady at 0° C. Cold perception was assessed as the time taken by the animal to pulling out its paw from the cold water, the cut-off time was 180 seconds. […]
The paw withdrawal latency values were determined as % by comparing the latencies measured on day 3 and 7 after the operation to the mean initial latency values. […] Results are expressed as means±s.e.m of the withdrawal behaviour latency changes of n=6-6 mice per groups. […]

RTX-induced hyperalgesia = experiment: Resiniferatoxin-evoked thermal and mechanical hyperalgesia in mice; assay type: in vivo, male C57Bl/6 mice; conditions: mouse; for drop of mechanonociceptive threshold after RTX at 2 hours: solvent group 47.1±6%; for acute neurogenic inflammatory heat allodynia: only significant in case of SZV-1287 after RTX
Experimental: as §1, §2
The mechanical touch sensitivity thresholds of the plantar surface of the paws was determined by aesthesiometry (Ugo Basile Dynamic Plantar Aesthesiometer 37400; Comerio, Italy). This is an electronic von Frey device, in which the animals moved about freely in one of the compartments of the enclosure positioned on the metal mesh surface. Following acclimation after cessation of exploratory behaviour, the touch stimulator unit was placed under the animal's paw, using the adjustable angled-mirror to position the filament below the target area of the plantar surface. Then an electrodynamic actuator of proprietary design lifted a straight metal filament, which touched the plantar surface and began to exert an increasing upward force at a preset rate of application until a stop signal (removal of the paw) was attained. The paw withdrawal threshold was obtained in grams. Hyperalgesia or allodynia (decrease of the withdrawal thresholds) was expressed as percentage by comparing the data of each individual animal to the averaged three initial control thresholds.
Resiniferatoxin (RTX) is a potent agonist of Transient Receptor Potential Vanilloid 1 (TRPV1) receptors, which are mainly expressed on capsicin-sensitive sensory nerve ending. Intraplantarly (i.pl.) injection of RTX (0.03 μg/ml; 20 μl) into one of the hindpaws induced an acute inflammation and a robust drop of heat and mechanical thresholds.
The noxious heat threshold of the paw, defined as the lowest temperature evoking nocifensive behaviour—was measured with an increasing-temperature hot plate (IITC Life Science, Woodland Hills, Calif., USA). After habituation, mice were placed onto the plate, which was then heated up from room temperature at a rate of 12° C./min until the animals showing nocifensive behaviour (licking, lifting or shaking one of the hindpaws). The corresponding plate temperature was considered as the noxious heat threshold.
Lines represent thermal and mechanical hyperalgesia before drug injection and 5, 10, 15, 20 min as well as 2, 4, 6, 24 hours, respectively after compound/solvent administration. Results are expressed as means±s.e.m. of the thermo- and mechanonociceptive threshold changes of n=7-8 per groups. Data were analysed with Two-way ANOVA following Bonferroni's post-test in comparison to determine differences between the pre- and post-injection values of the respective groups **p<0.01, *** p<0.001 SZV-1287 vs. saline and ### p<0.001 SZV-1911 vs. saline.

In the case of `ON=CCCc1nc(-c2ccccc2)c(-c2ccccc2)o1` [SZV-1287, 3-(4,5-diphenyl-1,3-oxazol-2-yl)propanal oxime], the “change of the mechanonociceptive thresholds, contralateral side of the operated rats” value [1] is reported as “No change”, the “inhibitory effect on mechanical allodynia” value [1] is reported as “approximately 30%” and the “mechanical allodynia (decrease of withdrawal threshold vs initial control) after drug injection” value [1] is reported as 34.6±7.6%. For the same compound, the “change of the mechanonociceptive thresholds, sham-operated group” value [1] was “No change”, the “thermonociceptive threshold after formalin application” value ([2]; 1 hour, basal 44.8±1.7° C., saline treated mice 37.4±3° C.) was 37.5±4 °C and the “nocifensive behaviour (total duration of paw lickings and liftings), early phase” value ([2]; formalin i.pl., early phase (0-5 min), vs saline) was “significantly lower”. For the same compound, the “nocifensive behaviour (total duration of paw lickings and liftings), late phase” value ([2]; formalin i.pl., late phase (20-45 min), vs saline) was “significantly lower”, the “sciatic nerve ligation-induced neuropathic mechanical hyperalgesia” value [3] was “significantly decreased” and the “neuropathic cold hyperalgesia (cold allodynia, paw withdrawal latency)” value [4] was “did not influence”. For the same compound, the “drop of mechanonociceptive threshold after RTX at 2 hours” value (RTX-induced hyperalgesia; 20 mg/kg i.p. pretreatment) was 22.1±7%, the “drop of heat threshold after intraplantar RTX” value (RTX-induced hyperalgesia; 20 mg/kg i.p. pretreatment, maintained during 15 minutes, solvent group approx. 8 degree) was 1-2 °C and the “acute neurogenic inflammatory heat allodynia” value (RTX-induced hyperalgesia) was “moderately decreased”.
With `C=C(CNN)c1ccccc1` [SZV-1911, (2-phenyl-2-propen-1-yl)hydrazine] the “change of the mechanonociceptive thresholds, contralateral side of the operated rats” value [1] was “No change”, the “inhibitory effect on mechanical allodynia” value [1] was “approximately 30%” and the “mechanical allodynia (decrease of withdrawal threshold vs initial control) after drug injection” value [1] was 32.9±3.4%. For the same compound, the “change of the mechanonociceptive thresholds, sham-operated group” value [1] was “No change”, the “sciatic nerve ligation-induced neuropathic mechanical hyperalgesia” value ([3]; 20 mg/kg) was “significantly diminished; also recorded: significantly decreased” and the “neuropathic cold hyperalgesia (cold allodynia, paw withdrawal latency)” value [4] was “did not influence”. For the same compound, the “drop of mechanonociceptive threshold after RTX at 2 hours” value (RTX-induced hyperalgesia; 20 mg/kg i.p. pretreatment) was 14.7±6%, the “change of mechanonociceptive threshold after RTX at 4 hours” value (RTX-induced hyperalgesia; 20 mg/kg i.p. pretreatment, 4 hours, solvent group 35.3±3%) was 6.5±6% and the “acute neurogenic inflammatory heat allodynia” value (RTX-induced hyperalgesia) was “moderately decreased”.
